From ChEMBL document CHEMBL3045624, “Quantitative structureactivity relationships for estimating the aryl hydrocarbon receptor binding affinities of resveratrol derivatives and the antioxidant activities of hydroxystilbenes” (Med Chem Res, 2010) come the findings set out here.

Assay [1] in a line: Antioxidant activity assessed as time required to inhibit Cu2+-induced human LDL peroxidation. The assay is classed as functional.
The nature of assay [2]: Antioxidant activity assessed as time required to inhibit AAPH-induced human LDL peroxidation. Format: functional.
The nature of assay [3]: Antioxidant activity assessed as inhibition rate constant in AAPH-induced human LDL peroxidation. Format: functional.
Assay [4] is described as follows: Antioxidant activity assessed as inhibition rate constant for reaction with peroxyl radicals. Format: functional.
Assay [5] can be described thus: Antioxidant activity in SDS micelles assessed as time required to inhibit AAPH-induced linoleic acid peroxidation. The assay is classed as functional.
Assay [6] can be described thus: Antioxidant activity in CTAB micelles assessed as time required to inhibit AAPH-induced linoleic acid peroxidation. Format: functional.
Assay [7] deals with T1, Aryl hydrocarbon receptor (Homo sapiens, UniProt P35869).
T1 sequence (P35869 whole entry): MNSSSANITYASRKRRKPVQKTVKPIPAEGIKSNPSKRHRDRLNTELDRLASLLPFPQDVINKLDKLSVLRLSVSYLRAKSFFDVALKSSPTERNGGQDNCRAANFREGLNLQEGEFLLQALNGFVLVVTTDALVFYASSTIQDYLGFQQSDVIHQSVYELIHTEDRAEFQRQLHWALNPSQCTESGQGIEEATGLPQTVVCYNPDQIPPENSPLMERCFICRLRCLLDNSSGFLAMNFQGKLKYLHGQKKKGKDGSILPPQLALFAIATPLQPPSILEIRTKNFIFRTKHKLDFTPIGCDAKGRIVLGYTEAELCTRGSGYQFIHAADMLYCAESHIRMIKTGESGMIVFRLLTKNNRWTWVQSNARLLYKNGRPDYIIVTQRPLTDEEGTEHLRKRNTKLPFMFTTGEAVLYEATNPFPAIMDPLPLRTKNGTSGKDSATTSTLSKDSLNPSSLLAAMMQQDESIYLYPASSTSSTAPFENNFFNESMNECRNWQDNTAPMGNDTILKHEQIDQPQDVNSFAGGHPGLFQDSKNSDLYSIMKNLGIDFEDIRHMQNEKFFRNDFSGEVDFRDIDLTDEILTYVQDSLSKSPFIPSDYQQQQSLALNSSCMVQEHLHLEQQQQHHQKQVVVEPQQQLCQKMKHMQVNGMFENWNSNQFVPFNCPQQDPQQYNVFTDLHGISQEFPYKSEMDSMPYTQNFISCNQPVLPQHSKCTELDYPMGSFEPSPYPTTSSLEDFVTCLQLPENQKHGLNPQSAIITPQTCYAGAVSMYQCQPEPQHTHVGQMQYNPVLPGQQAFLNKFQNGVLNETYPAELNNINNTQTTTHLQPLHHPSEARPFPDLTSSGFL
Description: Binding affinity to aryl hydrocarbon receptor (unknown origin). As to conditions: read-out: Ki(app).

Assay [8] can be described thus: Antioxidant activity in CTAB micelles assessed as inhibition rate constant for AAPH-induced linoleic acid peroxidation. Format: functional.
Assay [9] is described as follows: Antioxidant activity in SDS micelles assessed as inhibition rate constant for AAPH-induced linoleic acid peroxidation. Format: functional.
The test system of a further assay is Liver microsome. As to the kind of experiment: Antioxidant activity in Rattus norvegicus Wistar (rat) liver microsomes assessed as inhibition of Fe2+/ascorbate-induced lipid peroxidation incubated for 10 min prior to Fe2+/ascorbate induction measured after 60 min by TBARS assay. Format: functional.
Assay [10] can be described thus: Antioxidant activity assessed as decrease in initial quantity of DPPH measured up to 6 hr by spectrophotometric analysis. Format: functional.
Assay [11] is described as follows: Antioxidant activity assessed as superoxide scavenging activity in riboflavin light-NBT system. Format: functional.
The nature of assay [12]: Antioxidant activity assessed as time required to induce lipid oxidation by Rancimat method. The assay is classed as functional.
The test system of assay [13] is Radical scavenging activity. Description: Antioxidant activity assessed as inhibition of DPPH free radical formation. Format: functional. Also noted: concentration or dose not given beside the values. As to conditions: dose or concentration not given here.

≈ marks a conversion by molar mass, not a printed value.

`Oc1ccc(/C=C/c2ccccc2)c(O)c1`: the TIME in [1] was determined as 0.883 h; in assay [2], 0.292 h. Besides, in assay [3], the INH was found to be 6.2 ×10⁵ L/mol/s.

Regarding `COc1cc(/C=C/c2cc(O)c(O)c(C(C)(C)C)c2)cc(OC)c1`, the INH in assay [4] was found to be 240 ×10⁴ L/mol/s.

Consider `COc1cc(/C=C/c2ccc(O)c(O)c2)cc(OC)c1`, for which, in [4], the INH was 110 ×10⁴ L/mol/s.

`Oc1ccc(/C=C/c2ccc(O)c(O)c2)cc1`: the TIME is 7.2 ×10³ s in [5], 1.75 h in [1], 0.62 h in [2] and 5.1 ×10³ s in assay [6]. For the same compound, the INH in assay [3] was 4.2 ×10⁵ L/mol/s.

For the compound `COc1cc(/C=C\c2ccc(O)cc2)cc(OC)c1`, in assay [4], the INH turned out to be 6.3 ×10⁴ L/mol/s.

Consider `COc1cc(/C=C/c2cc(C(C)(C)C)c(O)c(C(C)(C)C)c2)cc(OC)c1`, for which the INH in [4] was determined as 6.8 ×10⁴ L/mol/s.

On to `COc1ccc(/C=C\c2cc(OC)cc(OC)c2)cc1` [8Z-3,4',5-TRIMETHOXYSTILBENE], for which the Ki in assay [7] was determined as 0.012 µM.

In the case of `COc1cc(/C=C/c2ccc(O)c(OC)c2)ccc1O`, the TIME in assay [1] came to 1.47 h; in assay [2], 0.85 h. In addition, the INH in assay [3] was found to be 4.1 ×10⁵ L/mol/s.

Turning to `COc1cc(/C=C\c2ccc(O)c(O)c2)cc(OC)c1`, the INH in assay [4] turned out to be 76 ×10⁴ L/mol/s.

Take `Oc1ccc(/C=C/c2ccccc2)cc1`: the TIME amounted to 2.1 ×10³ s in assay [5] and 1.7 ×10³ s in [6]. Also, the INH in assay [8] turned out to be 1 ×10⁴ L/mol/s; in [9], 1.2 ×10⁴ L/mol/s.

As for `COc1cc(/C=C/c2ccc(O)cc2)cc(OC)c1` [PTEROSTILBENE], the EC50 in the assay on Liver microsome came to 355 µM; in assay [10], 30.1 µM. In [4], the INH came to 13 ×10⁴ L/mol/s.

On to `Oc1cc(/C=C/c2cc(O)c(O)c(O)c2)cc(O)c1O`, for which, in [11], the IC50 came to 0.9 mg/L (≈ 3.26 µM).

Consider `Oc1ccc(/C=C/c2cc(O)c(O)c(O)c2)cc1`, for which the TIME in [12] amounted to 43 h. Besides, in [13], the inhibition was 92.9%.

On to `COc1cc(/C=C/c2ccc(O)c(OC)c2)cc(OC)c1`, for which, in [4], the INH came out at 10 ×10⁴ L/mol/s.

As to `COc1cc(/C=C\c2cc(C(C)(C)C)c(O)c(C(C)(C)C)c2)cc(OC)c1`, the INH in assay [4] stood at 2.3 ×10⁴ L/mol/s.

As to `CCOc1ccc(/C=C\c2cc(OC)cc(OC)c2)cc1`, the Ki in [7] is 0.012 µM.

Take `Oc1cc(O)cc(/C=C/c2cc(O)cc(O)c2)c1`: in assay [12], the TIME is 3.7 h. The inhibition in [13] is 46.5%.

As for `Oc1ccc(/C=C/c2ccccc2)cc1O`, the TIME in assay [5] amounted to 4.9 ×10³ s; in [1], 1.77 h; in assay [2] it was 0.65 h; in assay [6], 4.1 ×10³ s. Moreover, the values for the INH in [8], in assay [9] and in assay [3] were 0.9 ×10⁴ L/mol/s, 2.9 ×10⁴ L/mol/s and 4.9 ×10⁵ L/mol/s, respectively.

As to `Oc1ccc(/C=C/c2cc(O)cc(O)c2)cc1` [RESVERATROL], the EC50 in the assay with Liver microsome worked out at 135 µM. The TIME came out at 3.1 ×10³ s in [5]; 0.967 h in [1]; 0.397 h in assay [2]; 12.3 h in [12]; 2.7 ×10³ s in assay [6]. Further, the INH in assay [8] turned out to be 0.7 ×10⁴ L/mol/s; in assay [9], 1.3 ×10⁴ L/mol/s; in assay [4], 14 ×10⁴ L/mol/s; in assay [3] it was 4.4 ×10⁵ L/mol/s. Moreover, the IC50 in [11] worked out at 106 mg/L (≈ 464 µM). Moreover, in assay [13], the inhibition turned out to be 55.1%.

Take `O=C(/C=C/c1ccc(O)c(O)c1)Oc1cc(O)cc(/C=C/c2ccc(O)cc2)c1`: the IC50 in [11] came out at 9.2 mg/L (≈ 23.6 µM).

Consider `COc1ccc(/C=C/c2cc(O)cc(O)c2)cc1` [RESVERATROL 4'-METHYL ETHER], for which the EC50 is 661 µM in the assay with Liver microsome and 48.6 µM in [10].

`COc1ccc(/C=C\c2cc(Cl)cc(Cl)c2)cc1`: the Ki in assay [7] was found to be 0.012 µM.

As to `Oc1cc(O)cc(/C=C/c2ccc(O)c(O)c2)c1`, the TIME in assay [12] turned out to be 60.3 h. Further, the inhibition in [13] worked out at 67.1%.

`CCCCOc1ccc(/C=C\c2cc(OC)cc(OC)c2)cc1`: in assay [7], the Ki was determined as 0.012 µM.

Consider `Oc1ccc(/C=C/c2ccc(O)c(O)c2)cc1O`, for which the values for the TIME in assay [1] and in assay [2] were 1.78 h and 0.85 h, respectively. Besides, in [3], the INH turned out to be 3.7 ×10⁵ L/mol/s.

For `Oc1cc(O)cc(/C=C/c2ccccc2)c1`, the TIME in [5] is 1.5 ×10³ s; in assay [1] it was 0.717 h; in assay [2] it was 0.362 h; in assay [12], 2.3 h; in assay [6] it was 2.4 ×10³ s. In addition, the results for the INH in [8], in [9] and in assay [3] were 0.5 ×10⁴ L/mol/s, 1.7 ×10⁴ L/mol/s and 3.3 ×10⁵ L/mol/s, respectively. In assay [13], the inhibition was determined as 29.8%.

With `O=C(/C=C/c1cc(O)c(O)c(O)c1)Oc1cc(O)cc(/C=C/c2ccc(O)cc2)c1`, in assay [11], the IC50 was determined as 10 mg/L (≈ 24.6 µM).

`Oc1ccc(/C=C/c2cc(O)c(O)c(O)c2)cc1O`: the IC50 in assay [11] stood at 3 mg/L (≈ 11.5 µM).

With `Clc1ccc(/C=C\c2cc(Cl)cc(Cl)c2)cc1`, the Ki in assay [7] turned out to be 0.012 µM.

For the compound `Oc1cc(/C=C/c2ccccc2)cc(O)c1O`, the TIME in assay [5] turned out to be 2.4 ×10³ s; in [6], 2.9 ×10³ s. Further, the INH is 1.3 ×10⁴ L/mol/s in assay [8] and 3.1 ×10⁴ L/mol/s in assay [9].

On to `Oc1cc(O)cc(/C=C/c2cc(O)c(O)c(O)c2)c1`, for which, in assay [12], the TIME came to 48.1 h. Also, the inhibition in [13] is 92.9%.

In the case of `Oc1ccc(/C=C/c2ccc(O)cc2O)cc1`, the results for the TIME in assay [1] and in assay [2] were 0.717 h and 0.458 h, respectively. Besides, the INH in assay [3] came to 3.3 ×10⁵ L/mol/s.

As to `Oc1cc(/C=C/c2cc(O)c(O)c(Br)c2)cc(O)c1O`, the IC50 in assay [11] is 8.1 mg/L (≈ 23.9 µM).

For `COc1cc(/C=C\c2ccc(O)c(OC)c2)cc(OC)c1`, in [4], the INH was 5.7 ×10⁴ L/mol/s.

In the case of `O=C(Oc1cc(O)cc(/C=C/c2ccc(O)cc2)c1)c1cc(O)c(O)c(O)c1`, the IC50 in [11] was 16 mg/L (≈ 42.1 µM).

On to `Oc1ccc(/C=C\c2cc(O)cc(O)c2)cc1` [CIS-RESVERATROL], for which the EC50 with Liver microsome was 241 µM. The INH in assay [4] worked out at 7.4 ×10⁴ L/mol/s.

Consider `Oc1ccc(/C=C/c2ccc(O)cc2)cc1`, for which the TIME in [5] stood at 3.2 ×10³ s; in assay [1], 1.28 h; in [2], 0.308 h; in assay [6], 2.6 ×10³ s. Moreover, the INH in [8] turned out to be 0.8 ×10⁴ L/mol/s; in [9] it was 1.4 ×10⁴ L/mol/s; in assay [3], 8.2 ×10⁵ L/mol/s.

Usually EC50 stands for the concentration at which the effect is half-maximal. One may read the IC50 as the concentration at which inhibition is half-maximal. The inhibition is the share of the control response that was lost under treatment.
